Columns and labels:
[1] = test system: Collagen-induced blood-platelet aggregation; experiment: Collagen-induced blood-platelet aggregation; type: in vivo, Wistar rats; conditions: Rattus norvegicus, po; 100 mg/kg orally, rats, 3 hours after treatment; read-out: Percent inhibition of blood-platelet aggregation, Collagen
Protocol: (§1) A blood sample is taken from the jugular vein of Wistar rats. From this citrated blood and after centifugation, a plasma is reconstituted which contains 600,000 ± 20,000 blood-platelets per ml, which plasma is then used in all aggregation determinations.
(§2) 0.4 ml plasma is placed in a siliconized tube provided with a magnet bar, also siliconized. The tube is introduced into an aggregometer connected to an apparatus which records optical density variations. When light transmission has attained a stable value, 0.5 ml of a solution containing 10 μM A.D.P. (adenosinediphosphate) is added to the tube.
(§3) Blood-platelet aggregation induces an increase of light transmission, followed by a decrease subsequent to the deaggregation phase.
The A.D.P. solution is substituted with a collagen (bovine tendon extract) solution.
(§4) Different groups of 20 rats each are used, each group being orally administered 100 mg/kg of a test derivative.

[2] = test system: rat globules (red corpuscles); experiment: In vitro anti-sludge activity, curative procedure (protamine sulfate); type: cell-based; conditions: 25 μg
Protocol: (§5) Said activity was investigated in vitro and in vivo in rats.
(§6) Thrice washed rat globules are diluted to 1/250 in physiological saline. In each of 5 tubes are placed 0.6 ml of this suspension and 0.2 ml physiological saline. To each tube is then added 0-25-50-100 and 200 μg, respectively, of the test derivative contained in 0.2 ml solution. After incubation for one hour at 37° C., 0.2 ml of a solution containing 125 μg/ml protamine sulfate are added, after which the tube is then incubated again for 0.5 hour at 37° C. The globules of each tube are then examined with a Mallases cell, and the percent free globules and the percent aggregates formed by 2, 3, 4, 5 etc.. globules is then recorded.
The experiment was repeated according to a "curvative" procedure; the red corpuscles were first contacted with protamine sulfate and, after incubation for 0.5 hour, 0.2 ml containing 25 μg of test derivative were added thereto, which operation is followed by another incubation for one hour at 37° C. The results obtained are reported in Table III, in which the percent agglomerates as a function of size is indicated.

[3] = test system: A.D.P. induced blood-platelet aggregation; experiment: A.D.P. induced blood-platelet aggregation; type: in vivo, Wistar rats; conditions: Rattus norvegicus, po; 100 mg/kg orally, rats, 3 hours after treatment, 10 μM A.D.P. solution; read-out: Percent inhibition of blood-platelet aggregation, A.D.P.
Protocol: as §1, §2, §3, §4

[4] = test system: rat globules (red corpuscles); experiment: In vitro anti-sludge activity, preventive treatment (protamine sulfate); type: cell-based
Protocol: as §5, §6

[5] = Acute toxicity (LD50, method according to Miller and Tainter); conditions: mouse, in vivo, mice, intravenous, read-out: LD50 /24h/kg body weight

SMILES: COC(=O)C1Cc2sc(Cl)cc2CN1 (centres unmarked) [Example 29]
- inhibition at 100 mg/kg [1]: 92.7%
- percent agglomerates, size 2 [2]: 9%
- percent agglomerates, size 3 [2]: 2%
- percent agglomerates, size 4 [2]: 1%
- percent agglomerates, size 5 [2]: 0%
- percent agglomerates, size 6 [2]: 0%
- percent agglomerates, size 7 [2]: 0%
- percent agglomerates, size 8 [2]: 0%
- percent agglomerates, size 9 [2]: 0%
- percent agglomerates, size 10 [2]: 0%
- percent free red corpuscles (size of agglomerates 1) [2]: 87%
- inhibition at 100 mg/kg [3]: 62.7%

SMILES: O=C(OCc1ccccc1Cl)C1Cc2sccc2CN1Cc1ccccc1Cl (centres unmarked) [Example 13, 5-o-Chlorobenzyl-6-o-chlorobenzyloxycarbonyl-4,5,6,7-tetrahydro-thieno[3,2-c]pyridine]
- inhibition at 100 mg/kg [1]: 96.1%
- percent agglomerates, size 2 [2]: 9%
- percent agglomerates, size 3 [2]: 5%
- percent agglomerates, size 4 [2]: 0%
- percent agglomerates, size 5 [2]: 0%
- percent agglomerates, size 6 [2]: 0%
- percent agglomerates, size 7 [2]: 0%
- percent agglomerates, size 8 [2]: 0%
- percent agglomerates, size 9 [2]: 0%
- percent agglomerates, size 10 [2]: 0%
- percent free red corpuscles (size of agglomerates 1) [2]: 86%
- inhibition at 100 mg/kg [3]: 64.4%
- percent agglomerates, size 2 ([4]; 25 μg): 26%
- percent agglomerates, size 3 ([4]; 25 μg): 9%
- percent agglomerates, size 4 ([4]; 25 μg): 0%
- percent agglomerates, size 5 ([4]; 25 μg): 0%
- percent agglomerates, size 6 ([4]; 25 μg): 0%
- percent agglomerates, size 7 ([4]; 25 μg): 0%
- percent agglomerates, size 8 ([4]; 25 μg): 0%
- percent agglomerates, size 9 ([4]; 25 μg): 0%
- percent agglomerates, size 10 ([4]; 25 μg): 0%
- percent agglomerates, size 11 ([4]; 25 μg): 0%
- percent agglomerates, size 12 ([4]; 25 μg): 0%
- percent agglomerates, size 13 ([4]; 25 μg): 0%
- percent free red corpuscles (size of agglomerates 1) ([4]; 25 μg): 65%
- percent agglomerates, size 2 ([4]; 50 μg): 23%
- percent agglomerates, size 3 ([4]; 50 μg): 5%
- percent agglomerates, size 4 ([4]; 50 μg): 4%
- percent agglomerates, size 5 ([4]; 50 μg): 0%
- percent agglomerates, size 6 ([4]; 50 μg): 0%
- percent agglomerates, size 7 ([4]; 50 μg): 0%
- percent agglomerates, size 8 ([4]; 50 μg): 0%
- percent agglomerates, size 9 ([4]; 50 μg): 0%
- percent agglomerates, size 10 ([4]; 50 μg): 0%
- percent agglomerates, size 11 ([4]; 50 μg): 0%
- percent agglomerates, size 12 ([4]; 50 μg): 0%
- percent agglomerates, size 13 ([4]; 50 μg): 0%
- percent free red corpuscles (size of agglomerates 1) ([4]; 50 μg): 68%
- percent agglomerates, size 2 ([4]; 100 μg): 8%
- percent agglomerates, size 3 ([4]; 100 μg): 3%
- percent agglomerates, size 4 ([4]; 100 μg): 2%
- percent agglomerates, size 5 ([4]; 100 μg): 0%
- percent agglomerates, size 6 ([4]; 100 μg): 0%
- percent agglomerates, size 7 ([4]; 100 μg): 0%
- percent agglomerates, size 8 ([4]; 100 μg): 0%
- percent agglomerates, size 9 ([4]; 100 μg): 0%
- percent agglomerates, size 10 ([4]; 100 μg): 0%
- percent agglomerates, size 11 ([4]; 100 μg): 0%
- percent agglomerates, size 12 ([4]; 100 μg): 0%
- percent agglomerates, size 13 ([4]; 100 μg): 0%
- percent free red corpuscles (size of agglomerates 1) ([4]; 100 μg): 87%
- percent agglomerates, size 2 ([4]; 200 μg): 9%
- percent agglomerates, size 3 ([4]; 200 μg): 1%
- percent agglomerates, size 4 ([4]; 200 μg): 0%
- percent agglomerates, size 5 ([4]; 200 μg): 0%
- percent agglomerates, size 6 ([4]; 200 μg): 0%
- percent agglomerates, size 7 ([4]; 200 μg): 0%
- percent agglomerates, size 8 ([4]; 200 μg): 0%
- percent agglomerates, size 9 ([4]; 200 μg): 0%
- percent agglomerates, size 10 ([4]; 200 μg): 0%
- percent agglomerates, size 11 ([4]; 200 μg): 0%
- percent agglomerates, size 12 ([4]; 200 μg): 0%
- percent agglomerates, size 13 ([4]; 200 μg): 0%
- percent free red corpuscles (size of agglomerates 1) ([4]; 200 μg): 90%

SMILES: CN1Cc2ccsc2CC1C(=O)O (centres unmarked) [Example 25, 5-Methyl-6-carboxy-4,5,6,7-tetrahydro-thieno[3,2-c]pyridine]
- inhibition at 100 mg/kg [1]: 92.4%
- LD50 at 24 h [5]: 325 mg/kg
- inhibition at 100 mg/kg [3]: 61.6%

SMILES: COc1cc(COC(=O)C2Cc3sccc3CN2Cc2cc(OC)c(OC)c(OC)c2)cc(OC)c1OC (centres unmarked) [Example 17, 5-(3,4,5-Trimethoxy-benzyl)-6-(3,4,5-trimethoxy-benzyl-oxycarbonyl)-4,5,6,7-tetrahydro-thieno[3,2-c]pyridine]
- inhibition at 100 mg/kg [1]: 92%
- inhibition at 100 mg/kg [3]: 61.2%

SMILES: O=C(O)C1Cc2sccc2CN1 (centres unmarked) [Example 2, 6-Carboxy-4,5,6,7-tetrahydro-thieno[3,2-c]pyridine]
- LD50 at 24 h [5]: 235 mg/kg

SMILES: O=C(O)[C@@H]1NCc2sccc2[C@@H]1O (relative stereo) [Example 5, 5-Carboxy-4-hydroxy-4,5,6,7-tetrahydro-thieno[2,3-c]pyridine]
- inhibition at 100 mg/kg [1]: 90.5%
- percent agglomerates, size 2 [2]: 11%
- percent agglomerates, size 3 [2]: 3%
- percent agglomerates, size 4 [2]: 0%
- percent agglomerates, size 5 [2]: 0%
- percent agglomerates, size 6 [2]: 0%
- percent agglomerates, size 7 [2]: 0%
- percent agglomerates, size 8 [2]: 0%
- percent agglomerates, size 9 [2]: 0%
- percent agglomerates, size 10 [2]: 0%
- percent free red corpuscles (size of agglomerates 1) [2]: 86%
- inhibition at 100 mg/kg [3]: 62.3%

SMILES: COC(=O)C1Cc2sc(Cl)cc2CN1Cc1ccccc1Cl (centres unmarked) [Example 30, 2-Chloro-5-o.chlorobenzyl-6-methoxycarbonyl-4,5,6,7-tetrahydro-thieno[3,2-c]pyridine]
- inhibition at 100 mg/kg [1]: 93%
- inhibition at 100 mg/kg [3]: 62.4%

SMILES: CCOC(=O)C1Cc2sccc2CN1C (centres unmarked) [Example 28, 5-Methyl-6-ethoxycarbonyl-4,5,6,7-tetrahydro-thieno[3,2-c]pyridine]
- inhibition at 100 mg/kg [1]: 90.2%
- inhibition at 100 mg/kg [3]: 60.8%
